Columns and labels:
IL-1β activation = IL-1β activation in P. aeruginosa-infected THP-1 macrophages (HEK IL-1R-lux reporter assay); format: cell-based, human; details: Homo sapiens; PAO1-infected THP-1 macrophages, IL-1 reporter assay; read-out: EC50, decrease in IL-1β activation
Procedure: (§1) Further to showing in vitro inhibition of LasB-mediated pro-IL-1β proteolysis, experiments were performed to determine the effect of compounds 12 and 16 on IL-1β activation and functionality in human macrophage cell cultures infected with P. aeruginosa PAO1, or an isogenic lasB deletion mutant thereof (ΔlasB). In these experiments, the levels of LasB activity in culture supernatants were measured via hydrolysis of the Sub115 fluorescent peptide, while the effect of LasB activity on IL-1β activation (functionality) was measured using a luciferase reporter cell line sensitive to IL-1β induction (Figure 3).
Human THP-1 macrophages were cultured by conventional methods then, pre-infection, culture media were replaced by RPMI lacking phenol red and antibiotics. […] After 2 h post-infection, 50 μL aliquots of supernatant were removed and used to quantitate both LasB activity and IL-1β functionality. To determine LasB activity, 50 μL of supernatant was added to Sub115 IL-1β peptide and hydrolysis of Sub115 was monitored spectrophotometrically with excitation at 355 nm and emission at 450 nm, as described above. Results were expressed as relative fluorescence units (RFU).
To determine IL-1β functionality, generation of an IL-1 signal was quantified by adding 50 μL of supernatant to HEK IL-1R-lux reporter cells cultured in RPMI supplemented with 5% heat-inactivated FBS, 200 μg/mL penicillin/streptomycin, 200 μg/mL hygromycin, 100 μg/mL zeomycin, and 0.5 μg/mL puromycin. No bacteria survived in this antibiotic condition; 18 h post-treatment, IL-1β-dependent luciferase induction was assayed by luminescence measured with D-luciferin substrate (Steady-Luc, Biotium) on a multimode reader (PerkinElmer) and expressed as relative luminescence units (RU), as previously described.[16]
In the first variation, experimental infections were performed with P. aeruginosa PAO1 and ΔlasB bacteria incubated with varying quantities of inhibitor at final concentrations ranging from 0.5 to 8 μM. […]

[1] = target: T1, secreted LasB in P. aeruginosa PAO1-infected THP-1 macrophages (Pseudomonas aeruginosa, UniProt P14756); experiment: LasB activity (Sub115 hydrolysis) in supernatants of P. aeruginosa-infected THP-1 macrophages; format: cell-based; details: PAO1-infected THP-1 macrophages, 2 h, inhibitor at 4 μM
T1 construct: The mature LasB protein is a 33 kDa metalloprotease, which is secreted from P. aeruginosa; endogenous in cells; host or cells: P. aeruginosa PAO1 infecting human THP-1 macrophages (MOI 10:1); supernatant after 2 h
T1 sequence (P14756 198-498): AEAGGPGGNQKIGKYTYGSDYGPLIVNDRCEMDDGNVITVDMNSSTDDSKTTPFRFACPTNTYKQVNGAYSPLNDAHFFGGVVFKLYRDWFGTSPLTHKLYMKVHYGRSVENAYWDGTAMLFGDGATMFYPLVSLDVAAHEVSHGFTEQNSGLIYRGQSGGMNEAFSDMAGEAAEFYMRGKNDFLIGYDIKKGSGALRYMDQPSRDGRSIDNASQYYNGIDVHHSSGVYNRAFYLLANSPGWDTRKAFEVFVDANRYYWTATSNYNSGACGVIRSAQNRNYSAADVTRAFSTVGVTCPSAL
Procedure: as §1
Human THP-1 macrophages were cultured by conventional methods then, pre-infection, culture media were replaced by RPMI lacking phenol red and antibiotics. Compounds VX-765 (caspase-1 inhibitor, developed by Vertex) and/or LasB inhibitors were added, immediately followed by inoculation with P. aeruginosa PAO1 or an isogenic lasB deletion mutant (ΔlasB), previously grown in Luria broth to late exponential phase (OD600 = 1.2) then washed and diluted in PBS, at a multiplicity of infection (MOI) of 10 to 1. After 2 h post-infection, 50 μL aliquots of supernatant were removed and used to quantitate both LasB activity and IL-1β functionality. To determine LasB activity, 50 μL of supernatant was added to Sub115 IL-1β peptide and hydrolysis of Sub115 was monitored spectrophotometrically with excitation at 355 nm and emission at 450 nm, as described above. Results were expressed as relative fluorescence units (RFU).
In the first variation, experimental infections were performed with P. aeruginosa PAO1 and ΔlasB bacteria incubated with varying quantities of inhibitor at final concentrations ranging from 0.5 to 8 μM. In the second, cells were treated and infected in the same manner and also treated with 5 μM VX-765 to provide a control for IL-1β activation by the inflammasome pathway.

[2] = Thermodynamic solubility in PBS (pH 7.4); format: physicochemical; details: aqueous buffer, thermodynamic from solid
[3] = target: T2, LasB (P. aeruginosa PAO1 culture supernatant) (Pseudomonas aeruginosa, UniProt P14756); experiment: Elastin Congo Red (ECR) assay, elastin hydrolysis by dialyzed PAO1 culture supernatant; format: biochemical; details: 25 μM inhibitor
T2 construct: The mature LasB protein is a 33 kDa metalloprotease, which is secreted from P. aeruginosa; endogenous in cells; host or cells: P. aeruginosa PAO1 culture supernatant, filtered and dialyzed
T2 sequence (P14756 198-498): as above
Text: This was chosen as the starting point for a medicinal chemistry-driven lead optimization program aiming to improve potency and solubility whilst retaining selectivity against host metalloenzymes. All synthesized compounds were initially assessed in a fluorimetric assay measuring hydrolysis of a fluorogenic substrate Abz-Ala-Gly-Leu-Ala-4-nitrobenzylamide (Abz-AGLA-Nba) by purified LasB and IC50 values determined (Tables 1 and 2). Inhibition of elastin hydrolytic activity was confirmed using an orthogonal assay measuring hydrolysis of Elastin Congo Red (ECR) complex by LasB prepared directly from a P. aeruginosa culture supernatant (Tables 1 and 2). […] Aqueous solubility was determined for most compounds (Tables 1 and 2).
Inhibition of elastin hydrolysis by native LasB, secreted in P. aeruginosa culture supernatants, was measured using the Elastin Congo Red (ECR) assay. Culture supernatants from P. aeruginosa strain PAO1, grown in LB medium at 37 °C for 24 h, were filtered and dialyzed against 50 mM Tris-HCl pH 7.4, 2.5 mM CaCl2 solution at 4 °C and supplemented with 0.01%Triton X-100, 10 mg/mL ECR (Sigma) and 25 μM inhibitor compounds. The reaction mixture was incubated for 16 h at 37 °C with shaking before centrifugation and recovery of the supernatant and measurement of solubilized congo red by absorbance (OD495) using an EnSight multimode plate reader (PerkinElmer).

purified LasB = target: T3, purified LasB (Pseudomonas aeruginosa, UniProt P14756); experiment: Inhibition of LasB-mediated proteolysis of human serum IgG (SDS-PAGE); format: biochemical, P. aeruginosa; details: for inhibition of generation of 37 kDa IgG degradation product by LasB: at 10 μM inhibitor
T3 construct: The mature LasB protein is a 33 kDa metalloprotease, which is secreted from P. aeruginosa; host or cells: P. aeruginosa PAO1 (native secretion, culture supernatant)
T3 sequence (P14756 198-498): as above
Procedure: To confirm if compounds 12 and 16 were able to inhibit this activity, human serum IgG was incubated with purified LasB in the presence of varying concentrations of inhibitors and the products analyzed by SDS-PAGE.
This protocol was adapted from Cathcart et al.[25] Briefly, 10 μg of IgG from human serum (Sigma) were incubated with 100 ng purified LasB in assay buffer (50 mM Tris-HCl pH 7.4, 2.5 mM CaCl2) for 4 h at 37 °C, with or without variable concentrations of inhibitor. Samples were then denatured and analyzed by 4–15% gradient SDS polyacrylamide gel electrophoresis (SDS-PAGE) and the gel stained using Coomassie blue. The IgG subunits are visualized as two bands at 28 kDa (light chain) and 54 kDa (heavy chain). Proteolysis by LasB results in the generation of a fragment of the heavy chain detected of approximately 37 kDa. Bands were quantified using ImageJ software, and IC50 values were determined using Prism software (GraphPad).

Structure (SMILES) | EC50 (IL-1β activation) | LasB activity in culture supernatant (Sub115 hydrolysis) [1] | solubility [2] | Elastin hydrolysis @ 25 μM (% inh) [3] | IC50 (purified LasB) | inhibition of generation of 37 kDa IgG degradation product by LasB (purified LasB)
COc1cc2sc(CNC(=O)C3(CC(=O)O)Cc4ccccc4C3)nc2cc1OCCC[N+](C)(C)C [Compound 12] | ~500 nM | complete abolition of activity | 17.7 mg/mL | 64 % inh | 2590 nM | complete inhibition
COc1cc2sc(CNC(=O)C3(CC(=O)O)Cc4cc(F)c(F)cc4C3)nc2cc1OCCC[N+](C)(CCO)CCO [Compound 16] | ~500 nM | complete abolition of activity | 15.1 mg/mL | 73 % inh | 1290 nM | complete inhibition

— publication PMC9926489, “Chemical Optimization of Selective Pseudomonas aeruginosa LasB Elastase Inhibitors and Their Impact on LasB-Mediated Activation of IL-1β in Cellular and Animal Infection Models” (ACS Infectious Diseases, 2023)
